Our source for the IC50 values is the Kinase Knowledgebase extract (Sharma et al. 2016).

Each structure is given as a SMILES string. A value given as a limit tells only on which side of the number the result lay.

In general, IC50 refers to the concentration that gives 50% inhibition. A lower IC50 goes with inhibition by little substance.

The target in the assay is PIK3CD (Human) (UniProt O00329). The assay is described as follows: Assessment of PIK3CD Kinase Activity.
Chain of PIK3CD (Human) (O00329 whole entry, looked up): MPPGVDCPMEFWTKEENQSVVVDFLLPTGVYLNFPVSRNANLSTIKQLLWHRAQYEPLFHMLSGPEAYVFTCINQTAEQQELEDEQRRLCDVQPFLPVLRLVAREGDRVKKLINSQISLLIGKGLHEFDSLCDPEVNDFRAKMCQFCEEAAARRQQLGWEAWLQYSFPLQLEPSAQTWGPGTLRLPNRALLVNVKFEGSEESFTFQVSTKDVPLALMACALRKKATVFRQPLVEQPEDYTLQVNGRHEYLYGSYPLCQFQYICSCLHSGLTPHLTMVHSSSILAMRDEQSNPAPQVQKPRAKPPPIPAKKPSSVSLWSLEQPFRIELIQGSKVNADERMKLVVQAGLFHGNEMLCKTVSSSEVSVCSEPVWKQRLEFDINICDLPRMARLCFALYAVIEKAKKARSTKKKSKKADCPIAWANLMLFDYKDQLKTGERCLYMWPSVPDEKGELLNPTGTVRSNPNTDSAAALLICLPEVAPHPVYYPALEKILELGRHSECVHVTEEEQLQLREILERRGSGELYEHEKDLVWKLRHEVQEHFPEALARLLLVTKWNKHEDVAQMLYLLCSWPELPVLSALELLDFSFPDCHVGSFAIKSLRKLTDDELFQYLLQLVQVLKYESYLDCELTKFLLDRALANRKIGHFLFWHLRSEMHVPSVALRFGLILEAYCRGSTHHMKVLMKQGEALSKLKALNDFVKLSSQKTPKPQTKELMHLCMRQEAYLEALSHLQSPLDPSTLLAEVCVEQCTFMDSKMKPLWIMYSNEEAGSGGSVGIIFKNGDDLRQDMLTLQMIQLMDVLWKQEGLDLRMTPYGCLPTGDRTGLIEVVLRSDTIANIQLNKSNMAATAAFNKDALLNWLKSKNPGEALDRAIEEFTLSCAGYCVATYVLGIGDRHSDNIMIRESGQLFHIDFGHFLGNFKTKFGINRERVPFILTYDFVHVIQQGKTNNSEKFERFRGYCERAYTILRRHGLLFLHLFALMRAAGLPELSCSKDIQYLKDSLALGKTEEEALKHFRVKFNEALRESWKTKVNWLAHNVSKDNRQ
The molecule `COc1c(C(C)Nc2ncnc3[nH]cnc23)cc(Cl)c(F)c1C1=CCN(S(C)(=O)=O)CC1` (stereo not given) came in with an IC50 of less than 50 nM.
Then `COc1c(-c2ccnn2C)cc(Cl)cc1C(C)Nc1ncnc2[nH]cnc12` (stereo not given), with 50 to 100 nM.
In turn, `CCOc1c(C(C)Nc2ncnc3[nH]cnc23)cc(Cl)c(C#N)c1C1CN(C(C)C)C1` (stereo not given) gave an IC50 of less than 50 nM.
Then `COc1c(C(C)Nc2ncnc3[nH]cnc23)cc(Cl)c(C)c1-c1ccc(C(=O)N2CCOCC2)c(F)c1` (stereo not given), with less than 50 nM; and `COc1c(-c2cncnc2)cc(Cl)cc1C(C)Nc1ncnc2[nH]cnc12` (stereo not given), with 50 to 100 nM.
Then `COc1c(-c2ccc(NC(C)=O)cc2)cc(Cl)cc1C(C)Nc1ncnc2[nH]cnc12` (stereo not given), with 50 to 100 nM; and `COc1c(-c2ccncc2)cc(Cl)cc1C(C)Nc1ncnc2[nH]cnc12` (stereo not given), with 50 to 100 nM; and `COc1c(C(C)Nc2ncnc3[nH]cnc23)cc(Cl)c(C)c1C1CC(=O)N(C)C1` (stereo not given), with less than 50 nM.
`COc1c(C(C)Nc2ncnc3[nH]cnc23)cc(Cl)c(C)c1-c1ccc(C(=O)NC2CCC2)c(F)c1` (stereo not given): the IC50 is less than 50 nM.
Then `COc1ncc(-c2cc(Cl)cc(C(C)Nc3ncnc4[nH]cnc34)c2OC)cn1` (stereo not given), with 100 to 250 nM.
As to `COc1c(C(C)Nc2ncnc3[nH]cnc23)cc(Cl)c(C)c1-c1cnn(C2(CC#N)CC(C#N)C2)c1` (stereo not given), the IC50 was less than 50 nM.
Then `COc1c(C(C)Nc2ncnc3[nH]cnc23)cc(Cl)c(C)c1-c1cncc(C#N)c1` (stereo not given), with less than 50 nM; and `COc1c(C(C)Nc2ncnc3[nH]cnc23)cc(Cl)c(C)c1C1CNC(=O)C1` (stereo not given), with less than 50 nM; and `COc1c(C(C)Nc2ncnc3[nH]cnc23)cc(Cl)c(C)c1-c1ccc(C(=O)N2CCC(O)CC2)c(F)c1` (stereo not given), with less than 50 nM.
Then `CNC(=O)c1ccc(-c2c(C)c(Cl)cc(C(C)Nc3ncnc4[nH]cnc34)c2OC)cc1F` (stereo not given), with less than 50 nM.
